# From ChEMBL document CHEMBL1146837, “Effects of fluorine substitution of cytosine analogues on the binding affinity to HIV-1 reverse transcriptase” (Bioorg Med Chem Lett, 2004)
# pKd: −log10 of the molar value.
# Experiments:
# Assay type in all cases: functional
# [1] = target: Human immunodeficiency virus type 1 reverse transcriptase (Human immunodeficiency virus 1) (UniProt Q72547); experiment: Efficiency of incorporation into a DNA primer directed by a DNA template at the active site of HIV-1 reverse transcriptase
# [2] = target: Human immunodeficiency virus type 1 reverse transcriptase (Human immunodeficiency virus 1, UniProt Q72547); experiment: Equilibrium binding constant at the active site of HIV-1 reverse transcriptase
# [3] = target: Human immunodeficiency virus type 1 reverse transcriptase (Human immunodeficiency virus 1) (UniProt Q72547); experiment: Rate of incorporation into a DNA primer directed by a DNA template at the active site of HIV-1 reverse transcriptase
Structure (SMILES),Efficiency [1] [µM⁻¹ s⁻¹],pKd [2],Kpol [3] [s⁻¹]
Nc1nc(=O)n([C@@H]2C=C[C@H](COP(=O)(O)OP(=O)(O)OP(=O)(O)O)O2)cc1F,0.031,4.51,0.95
Nc1ccn([C@@H]2CS[C@H](COP(=O)(O)OP(=O)(O)OP(=O)(O)O)O2)c(=O)n1 [LAMIVUDINE TRIPHOSPHATE],0.0013,4.82,0.019
Nc1nc(=O)n([C@@H]2CS[C@H](COP(=O)(O)OP(=O)(O)OP(=O)(O)O)O2)cc1F [EMTRICITABINE 5'-TRIPHOSPHATE],0.0033,4.92,0.039
Nc1nc(=O)n([C@H]2O[C@@H](COP(=O)(O)OP(=O)(O)OP(=O)(O)O)C=C2F)cc1F,0.0023,4.19,0.15
Nc1ccn([C@@H]2C=C[C@H](COP(=O)(O)OP(=O)(O)OP(=O)(O)O)O2)c(=O)n1,0.0086,4.74,0.16
